Experimental data as given in US11992497B2 (priority 2021, dated 2024).

Experiments:
rUGT2B7 = molecular target: T1, rUGT2B7 (Homo sapiens, UniProt P16662); assay: Inhibition of CBG glucuronidation by Compound 1; format: biochemical; details: for CBG detected, Percent of control / CBG glucuronide formed, Percent of control: rUGT2B7; for CBG detected / CBG glucuronide formed: rUGT2B7, 5 min
T1 sequence (P16662 24-529): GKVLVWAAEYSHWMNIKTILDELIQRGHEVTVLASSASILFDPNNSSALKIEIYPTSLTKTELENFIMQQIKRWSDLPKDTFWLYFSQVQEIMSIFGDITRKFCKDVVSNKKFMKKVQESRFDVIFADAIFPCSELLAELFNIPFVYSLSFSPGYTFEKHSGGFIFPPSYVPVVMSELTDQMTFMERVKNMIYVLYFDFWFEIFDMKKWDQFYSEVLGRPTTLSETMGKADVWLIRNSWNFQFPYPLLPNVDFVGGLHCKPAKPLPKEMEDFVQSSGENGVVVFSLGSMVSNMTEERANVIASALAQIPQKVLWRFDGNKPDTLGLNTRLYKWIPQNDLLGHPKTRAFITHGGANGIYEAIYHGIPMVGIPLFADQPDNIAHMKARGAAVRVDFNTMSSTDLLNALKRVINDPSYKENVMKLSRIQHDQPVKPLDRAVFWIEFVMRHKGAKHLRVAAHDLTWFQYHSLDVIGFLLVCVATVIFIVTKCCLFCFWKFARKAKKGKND
Protocol: (§1) The purpose of this experiment was to determine if Compound 1 can inhibit the glucuronidation of CBG, as both are substrates for the two major isoforms responsible for CBG glucuronidation.
(§2) The ability of Compound 1 to inhibit the metabolism of CBG by UGT1A9 and UGT2B7 enzymes was investigated to ascertain the ICso values for direct inhibition. The incubation conditions (substrate concentration, incubation time and protein concentration) were determined in Part 2 of the protocol such that CBG metabolism remains near initial rate conditions (e.g., 20-30% substrate loss).
(§3) Preliminary experiments were conducted in Part I of the protocol, first to establish the HPLC/MS/MS bioanalytical methods for CBG and CBG glucuronide. […] The second set of preliminary experiments (Part 2), as mentioned, were conducted to optimize the incubation conditions as described above. Incubations (at 37 C) contained Tris-HCl buffer (100 mM, pH 7.7), MgCl2 (10 mM), EDTA (1 mM, pH 7.4) and UDP-glucuronic acid (UDPGA, 10 mM). CBG was added to each incubation in DMSO such that the final percent of DMSO was 1% v/v, or less. Reactions were terminated by the addition of an equal volume of stop reagent, acetonitrile containing an internal standard. The samples were centrifuged (e.g., 920 RCF for 10 minutes at 10° C.), and the supernatant fractions were analyzed by LC-MS/MS to determine the amount of CBG remaining and formation of one metabolite (CBG glucuronide).
(§4) To examine its ability to act as a direct inhibitor of the above listed enzymes, Compound 1 was be added to recombinant human UGT enzyme together with CBG. Reactions were initiated with UDPGA and were carried out in duplicate. For all assays, reactions were terminated by the addition of acetonitrile with or without 2% v/v formic acid, including the internal standard.
(§5) Authentic metabolite reference standards were used for quantitation of the probe substrate metabolites and as internal standards. Based on the information obtained in the Part 2 experiments, the following table summarizes the experiments performed, assessing the inhibitory effects of Compound 1 was conducted as follows:
(§6) The amounts of CBG present at the end of the incubation periods was determined. For inhibition to have occurred, the amounts of CBG present at the end of the incubation period needed to increase, and the amounts of glucuronide formed needed to decrease.

rUGT1A9 = molecular target: T2, rUGT1A9 (Homo sapiens, UniProt O60656); assay: Inhibition of CBG glucuronidation by Compound 1; format: biochemical; details: for CBG detected, Percent of control / CBG glucuronide formed, Percent of control: rUGT1A9; for CBG detected / CBG glucuronide formed: rUGT1A9, 4 min
T2 sequence (O60656 26-530): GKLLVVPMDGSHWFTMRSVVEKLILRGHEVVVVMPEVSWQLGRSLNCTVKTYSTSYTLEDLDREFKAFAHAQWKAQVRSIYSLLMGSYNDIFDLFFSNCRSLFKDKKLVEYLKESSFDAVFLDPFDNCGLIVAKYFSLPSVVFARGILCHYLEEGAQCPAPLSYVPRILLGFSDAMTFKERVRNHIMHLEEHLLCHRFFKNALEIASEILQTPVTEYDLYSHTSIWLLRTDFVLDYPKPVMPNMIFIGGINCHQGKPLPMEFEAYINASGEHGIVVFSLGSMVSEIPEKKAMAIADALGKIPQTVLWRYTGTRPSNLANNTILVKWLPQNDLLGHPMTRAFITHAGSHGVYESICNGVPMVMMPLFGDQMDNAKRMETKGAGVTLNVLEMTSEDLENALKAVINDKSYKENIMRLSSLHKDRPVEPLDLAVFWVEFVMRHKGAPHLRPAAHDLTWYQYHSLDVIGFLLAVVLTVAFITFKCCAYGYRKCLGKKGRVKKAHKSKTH
Protocol: as §1, §2, §3, §4, §5, §6

In the case of CCCCCc1cc(O)c(C/C=C(\C)CCC=C(C)C)c(OC)c1 [Compound 1, (E)-2-(3,7-dimethylocta-2,6-dien-1-yl)-3-methoxy-5-pentylphenol], the “CBG detected, Percent of control” value (rUGT2B7; 10 μM CBG + 0.01 μM Compound 1) is reported as 103% of control, the “CBG glucuronide formed, Percent of control” value (rUGT2B7; 10 μM CBG + 0.01 μM Compound 1) is reported as 104% of control and the CBG detected (rUGT2B7; 10 μM CBG + 0.01 μM Compound 1) is reported as 1370 pmol. For the same compound, the CBG glucuronide formed (rUGT2B7; 10 μM CBG + 0.01 μM Compound 1) was 260000 area ratio, the “CBG detected, Percent of control” value (rUGT2B7; 10 μM CBG + 0.03 μM Compound 1) was 109% of control and the “CBG glucuronide formed, Percent of control” value (rUGT2B7; 10 μM CBG + 0.03 μM Compound 1) was 101% of control. For the same compound, the CBG detected (rUGT2B7; 10 μM CBG + 0.03 μM Compound 1) was 1460 pmol, the CBG glucuronide formed (rUGT2B7; 10 μM CBG + 0.03 μM Compound 1) was 252000 area ratio and the “CBG detected, Percent of control” value (rUGT2B7; 10 μM CBG + 0.1 μM Compound 1) was 106% of control. For the same compound, the “CBG glucuronide formed, Percent of control” value (rUGT2B7; 10 μM CBG + 0.1 μM Compound 1) was 103% of control, the CBG detected (rUGT2B7; 10 μM CBG + 0.1 μM Compound 1) was 1410 pmol and the CBG glucuronide formed (rUGT2B7; 10 μM CBG + 0.1 μM Compound 1) was 257000 area ratio. For the same compound, the “CBG detected, Percent of control” value (rUGT2B7; 10 μM CBG + 0.3 μM Compound 1) was 109% of control, the “CBG glucuronide formed, Percent of control” value (rUGT2B7; 10 μM CBG + 0.3 μM Compound 1) was 105% of control and the CBG detected (rUGT2B7; 10 μM CBG + 0.3 μM Compound 1) was 1450 pmol. The CBG glucuronide formed (rUGT2B7; 10 μM CBG + 0.3 μM Compound 1) was 262000 area ratio, the “CBG detected, Percent of control” value (rUGT2B7; 10 μM CBG + 1 μM Compound 1) was 109% of control and the “CBG glucuronide formed, Percent of control” value (rUGT2B7; 10 μM CBG + 1 μM Compound 1) was 102% of control. For the same compound, the CBG detected (rUGT2B7; 10 μM CBG + 1 μM Compound 1) was 1460 pmol, the CBG glucuronide formed (rUGT2B7; 10 μM CBG + 1 μM Compound 1) was 253000 area ratio and the “CBG detected, Percent of control” value (rUGT2B7; 10 μM CBG + 3 μM Compound 1) was 108% of control. For the same compound, the “CBG glucuronide formed, Percent of control” value (rUGT2B7; 10 μM CBG + 3 μM Compound 1) was 101% of control, the CBG detected (rUGT2B7; 10 μM CBG + 3 μM Compound 1) was 1440 pmol and the CBG glucuronide formed (rUGT2B7; 10 μM CBG + 3 μM Compound 1) was 252000 area ratio. The “CBG detected, Percent of control” value (rUGT2B7; 10 μM CBG + 10 μM Compound 1) was 111% of control, the “CBG glucuronide formed, Percent of control” value (rUGT2B7; 10 μM CBG + 10 μM Compound 1) was 96.0% of control and the CBG detected (rUGT2B7; 10 μM CBG + 10 μM Compound 1) was 1470 pmol. For the same compound, the CBG glucuronide formed (rUGT2B7; 10 μM CBG + 10 μM Compound 1) was 239000 area ratio, the “inhibition of the conversion of CBG to a glucuronide (in words)” value (rUGT2B7; UGT2B7, 0.01-10 μM Compound 1) was “not an effective inhibitor” and the “CBG detected, Percent of control” value (rUGT1A9; 10 μM CBG + 0.01 μM Compound 1) was 109% of control. For the same compound, the “CBG glucuronide formed, Percent of control” value (rUGT1A9; 10 μM CBG + 0.01 μM Compound 1) was 94.4% of control, the CBG detected (rUGT1A9; 10 μM CBG + 0.01 μM Compound 1) was 1250 pmol and the CBG glucuronide formed (rUGT1A9; 10 μM CBG + 0.01 μM Compound 1) was 350000 area ratio. The “CBG detected, Percent of control” value (rUGT1A9; 10 μM CBG + 0.03 μM Compound 1) was 110% of control, the “CBG glucuronide formed, Percent of control” value (rUGT1A9; 10 μM CBG + 0.03 μM Compound 1) was 97.1% of control and the CBG detected (rUGT1A9; 10 μM CBG + 0.03 μM Compound 1) was 1250 pmol. For the same compound, the CBG glucuronide formed (rUGT1A9; 10 μM CBG + 0.03 μM Compound 1) was 360000 area ratio, the “CBG detected, Percent of control” value (rUGT1A9; 10 μM CBG + 0.1 μM Compound 1) was 112% of control and the “CBG glucuronide formed, Percent of control” value (rUGT1A9; 10 μM CBG + 0.1 μM Compound 1) was 92.0% of control. The CBG detected (rUGT1A9; 10 μM CBG + 0.1 μM Compound 1) was 1280 pmol, the CBG glucuronide formed (rUGT1A9; 10 μM CBG + 0.1 μM Compound 1) was 341000 area ratio and the “CBG detected, Percent of control” value (rUGT1A9; 10 μM CBG + 0.3 μM Compound 1) was 114% of control. For the same compound, the “CBG glucuronide formed, Percent of control” value (rUGT1A9; 10 μM CBG + 0.3 μM Compound 1) was 94.4% of control, the CBG detected (rUGT1A9; 10 μM CBG + 0.3 μM Compound 1) was 1300 pmol and the CBG glucuronide formed (rUGT1A9; 10 μM CBG + 0.3 μM Compound 1) was 350000 area ratio. For the same compound, the “CBG detected, Percent of control” value (rUGT1A9; 10 μM CBG + 1 μM Compound 1) was 106% of control, the “CBG glucuronide formed, Percent of control” value (rUGT1A9; 10 μM CBG + 1 μM Compound 1) was 92.6% of control and the CBG detected (rUGT1A9; 10 μM CBG + 1 μM Compound 1) was 1210 pmol. For the same compound, the CBG glucuronide formed (rUGT1A9; 10 μM CBG + 1 μM Compound 1) was 343000 area ratio, the “CBG detected, Percent of control” value (rUGT1A9; 10 μM CBG + 3 μM Compound 1) was 105% of control and the “CBG glucuronide formed, Percent of control” value (rUGT1A9; 10 μM CBG + 3 μM Compound 1) was 93.6% of control. For the same compound, the CBG detected (rUGT1A9; 10 μM CBG + 3 μM Compound 1) was 1200 pmol, the CBG glucuronide formed (rUGT1A9; 10 μM CBG + 3 μM Compound 1) was 347000 area ratio and the “CBG detected, Percent of control” value (rUGT1A9; 10 μM CBG + 10 μM Compound 1) was 99.8% of control. The “CBG glucuronide formed, Percent of control” value (rUGT1A9; 10 μM CBG + 10 μM Compound 1) was 92.8% of control, the CBG detected (rUGT1A9; 10 μM CBG + 10 μM Compound 1) was 1140 pmol and the CBG glucuronide formed (rUGT1A9; 10 μM CBG + 10 μM Compound 1) was 344000 area ratio. The “inhibition of the conversion of CBG to a glucuronide (in words)” value (rUGT1A9; UGT1A9, 0.01-10 μM Compound 1) was “not an effective inhibitor”.
